Data as given in patent publication US20260373156A1, “CANCER TREATMENTS USING MTA-COOPERATIVE PRMT5 INHIBITORS” (AMGEN INC., priority 2022, published 2026).

Experiments:
Conditions in all cases: for Combination Fa: 8640 min
UM-UC-3 cells = test: CellTiter-Glo viability and CalcuSyn synergy, PRMT5 inhibitor + sotorasib, 6 days; type: cell-based
Description: Raw luminescent values were converted to fraction affected (Fa) with the following equation: […]
Synergy analysis was performed using the CalcuSyn software to determine CI scores based on the drug concentrations used and corresponding Fa values. Results are shown in Table 6 below. *CI Values (Calcusyn): Strong Synergism: 0.1-0.3; Synergism: 0.3-0.7; Moderate Synergism: 0.7-0.85; Slight Synergism: 0.85-0.9; Nearly Additive: 0.9-1.1.

MIAPACA2T2 cells [1] = test: CellTiter-Glo viability and CalcuSyn synergy, PRMT5 inhibitor + trametinib, 6 days
H292 cells = test: CellTiter-Glo viability and CalcuSyn synergy, PRMT5 inhibitor + palbociclib, 6 days
MIAPACA2T2 cells [2] = test: CellTiter-Glo viability and CalcuSyn synergy, PRMT5 inhibitor + KIF18A, 6 days
[3] = Compound B 0.2916 μM + sotorasib 0.00298 μM
[4] = Compound B 0.2916 μM + sotorasib 0.004768 μM
[5] = Compound B 0.2916 μM + sotorasib 0.007629 μM
[6] = Compound B 0.2916 μM + sotorasib 0.012207 μM
[7] = Compound B 0.2916 μM + sotorasib 0.019531 μM
[8] = Compound B 0.2916 μM + sotorasib 0.03125 μM
[9] = Compound B 0.437381 μM + trametinib 0.00101 μM
[10] = Compound B 0.437381 μM + trametinib 0.001918 μM
[11] = Compound B 0.437381 μM + trametinib 0.003645 μM
[12] = Compound B 0.437381 μM + trametinib 0.00531 μM
[13] = Compound B 0.437381 μM + trametinib 0.006925 μM
[14] = Compound B 0.437381 μM + trametinib 0.013158 μM
[15] = Compound B 0.437381 μM + trametinib 0.025 μM
[16] = Compound B 0.0425 μM + palbociclib 0.044102 μM
[17] = Compound B 0.0425 μM + palbociclib 0.079383 μM
[18] = Compound B 0.0425 μM + palbociclib 0.14289 μM
[19] = Compound B 0.0425 μM + palbociclib 0.257202 μM
[20] = Compound B 0.0425 μM + palbociclib 0.462963 μM
[21] = Compound B 0.0425 μM + palbociclib 0.833333 μM
[22] = Compound B 0.0425 μM + palbociclib 1.5 μM
[23] = Compound B 0.2302 μM + KIF18A 0.021256 μM
[24] = Compound B 0.2302 μM + KIF18A 0.040386 μM
[25] = Compound B 0.2302 μM + KIF18A 0.076734 μM
[26] = Compound B 0.2302 μM + KIF18A 0.145794 μM
[27] = Compound B 0.2302 μM + KIF18A 0.277008 μM
[28] = Compound B 0.2302 μM + KIF18A 0.526316 μM
[29] = Compound B 0.2302 μM + KIF18A 1 μM

## Cc1cc2cc(C(=O)N(Cc3ccc(C(F)(F)F)cn3)[C@@H](C)c3ncccn3)ccc2nc1N [Compound B]
UM-UC-3 cells; [3]
  Computed CI value: 1.172
  Combination Fa: 0.5393
UM-UC-3 cells; [4]
  Computed CI value: 1.028
  Combination Fa: 0.6004
UM-UC-3 cells; [5]
  Computed CI value: 0.778
  Combination Fa: 0.6836
UM-UC-3 cells; [6]
  Computed CI value: 0.685
  Combination Fa: 0.7355
UM-UC-3 cells; [7]
  Computed CI value: 0.677
  Combination Fa: 0.7685
UM-UC-3 cells; [8]
  Computed CI value: 0.584
  Combination Fa: 0.8141
MIAPACA2T2 cells [1]; [9]
  Computed CI value: 0.675
  Combination Fa: 0.6193
MIAPACA2T2 cells [1]; [10]
  Computed CI value: 0.555
  Combination Fa: 0.6852
MIAPACA2T2 cells [1]; [11]
  Computed CI value: 0.674
  Combination Fa: 0.7091
MIAPACA2T2 cells [1]; [12]
  Computed CI value: 0.775
  Combination Fa: 0.5757
MIAPACA2T2 cells [1]; [13]
  Computed CI value: 0.557
  Combination Fa: 0.797
MIAPACA2T2 cells [1]; [14]
  Computed CI value: 0.651
  Combination Fa: 0.8405
MIAPACA2T2 cells [1]; [15]
  Computed CI value: 1.099
  Combination Fa: 0.8474
H292 cells; [16]
  Computed CI value: 0.421
  Combination Fa: 0.6807
H292 cells; [17]
  Computed CI value: 0.403
  Combination Fa: 0.7009
H292 cells; [18]
  Computed CI value: 0.284
  Combination Fa: 0.7704
H292 cells; [19]
  Computed CI value: 0.308
  Combination Fa: 0.7959
H292 cells; [20]
  Computed CI value: 0.395
  Combination Fa: 0.8126
H292 cells; [21]
  Computed CI value: 0.587
  Combination Fa: 0.8205
H292 cells; [22]
  Computed CI value: 0.878
  Combination Fa: 0.8344
MIAPACA2T2 cells [2]; [23]
  Computed CI value: 0.763
  Combination Fa: 0.5368
MIAPACA2T2 cells [2]; [24]
  Computed CI value: 0.591
  Combination Fa: 0.6323
MIAPACA2T2 cells [2]; [25]
  Computed CI value: 0.578
  Combination Fa: 0.7018
MIAPACA2T2 cells [2]; [26]
  Computed CI value: 0.881
  Combination Fa: 0.7173
MIAPACA2T2 cells [2]; [27]
  Computed CI value: 0.826
  Combination Fa: 0.7944
MIAPACA2T2 cells [2]; [28]
  Computed CI value: 1.158
  Combination Fa: 0.8219
MIAPACA2T2 cells [2]; [29]
  Computed CI value: 2.512
  Combination Fa: 0.8073
